Entries after “also recorded” stand apart in the source; their conditions may differ.
Legend:
[1] = Administration of SCFA to mitigate murine GVHD (preliminary experiments); type: in vivo, mice; details: via drinking water (butyrate also via enema); data not shown
Description: Preliminary experiments were done to test the impact of administration of SCFA on murine GVHD. […] Sodium acetate (150 mM) will be delivered via the drinking water of mice beginning 2 weeks prior to BMT. Mice will then be irradiated and transplanted with continued supplementation of sodium acetate. Outcomes that will be evaluated in mice include GVHD clinical scores, survival, and day 14 and 28 tissue pathology. Kaplan-Meier curves will display the overall survival for the two groups. In addition, the area under the curve (AUC) will summarize the weekly total GVHD score from the time of infusion to week 13 for each mouse. Mice will be euthanized to evaluate for pathological evidence of GVHD, as well as to quantify and characterize large intestinal Tregs and alloreactive effector T cells by flow cytometry on days 14 and 28.

[2] = metronidazole added to ciprofloxacin; cited from earlier work
Clostridiales = test: Change in Clostridiales abundance in paired stool samples of allo-HSCT patients before and after starting antibiotics; type: in vivo, human; details: before vs after starting the antibiotic; compared to aztreonam
Source text: (§1) (A) A retrospective cohort was identified of 283 adult patients who received non-T cell depleted allo-HSCT at our center from 1994 to 2013 and received antibiotics for neutropenic fever. Patients were stratified by exposure to antibiotics with significant activity against anaerobes. Outcomes indicated were depicted by Kaplan-Meier plots and curves compared by the logrank test. (B to G) Six representative clinical cases with time courses depicted of fecal microbiota composition and administration of antibiotic treatments during the course of allo-HSCT. […] (H) Change in abundance of Clostridiales in paired fecal samples from patients undergoing allo-HSCT collected prior to and following treatment with the indicated antibiotics.
For each stool specimen, DNA was purified using a phenol-chloroform extraction technique with mechanical disruption (bead-beating) based on a previously described protocol (60). Samples were analyzed using the 454 GS FLX Titanium platform to sequence the V1-V3 region of the bacterial 16S rRNA gene or were alternatively analyzed using the Illumina MiSeq platform to sequence the V4-V5 region of the 16S rRNA gene. Sequence data were compiled and processed using mothur version 1.34 (61), screened and filtered for quality (62). Operational taxonomic units (OTUs) were classified to the species level (63) using a modified form of the Greengenes reference database (64). Principal component analysis was performed upon a weighted and normalized Unifrac (65) distance matrix of OTU abundance in R software. Data from this study has been stored in the NCBI Sequence Read Archive (see url: www.ncbi.nlm.nih.gov/sra).
HSCT patients were on intestinal bacterial composition. In 2009, our center began to prospectively collect weekly stool samples from patients undergoing allo-HSCT. From this specimen bank, we identified paired stool samples collected from patients prior to as well as following initiation of specific antibiotics during the course of allo-HSCT. […]

[3] = tested on: intestinal microbiota (Clostridiales, Enterococcus); test: Flora composition (16S rRNA sequencing of stool) after antibiotic treatment of healthy mice; type: in vivo, C57BL/6 mice
Description: (§2) FIGS. 16A-16J Imipenem treatment, compared to aztreonam treatment, suppresses anaerobic commensals and elevates GVHD severity in mice. (A) Flora composition analysis using 16S rRNA sequencing prior to and after treatment with the indicated antibiotics in healthy C57BL/6 mice. Mice were treated with subcutaneous (SC) injections of each antibiotic twice a day for two days (500 mg/kg for pip/tazo and 100 mg/kg for others) and stool samples were collected the following day. Values represent mean±SEM (n=3-4). *, P<0.05; **, P<0.01; ****, P<0.0001. Data are representative of two independent experiments. (B to J) Lethally irradiated 129S1 recipients were transplanted with MHC matched C57BL/6 T-cell depleted bone marrow (TCD-BM) cells and 1×10^6 C57BL/6 T cells. Control mice received TCD-BM only. Recipients were treated with imipenem or aztreonam (100 mg/kg, SC, 3 times a week from day 10 to day 24 following allo-HSCT). (B) Comparison of overall survival, with combined data from three independent experiments (n=15-43). ****, P<0.0001. (C) Mice with GVHD treated with antibiotics were sacrificed on day 21 and GVHD histology scores in target organs were quantified by a blinded pathologist. Data are combined from three independent experiments (n=5-20). *, P<0.05. (D) Stool samples obtained from mice treated with imipenem or aztreonam similarly to those in B were collected on day 21 and analyzed by 16S rRNA gene sequencing, followed by principal coordinate analysis of weighted and normalized UniFrac distances. (E and F) Differential taxonomic abundance between aztreonam treated and imipenem treated recipients was analyzed by (E) linear discriminate analysis coupled with effect size measurements (LEfSe) and (F) by LEfSe projected as a cladogram. Data are representative from more than five independent experiments in D to F. (G and H) Comparisons of bacterial abundance at the phylogenetic levels of (G) order, and (H) genus are shown. Data are combined from 6 independent experiments (n=32-36). ***, P<0.001. (I) Stool samples collected from mice with GVHD treated with antibiotics were collected on day 21, and evaluated by metagenomic shotgun sequence analysis, comparison of bacterial species abundance determined by taxonomy. Numbers 1 through 6 along the x-axis represent the individual subjects. (J) Principal component analysis of quantification of sequence reads from KEGG gene orthologs comparing samples from mice treated with aztreonam and imipenem.
To further explore causality and mechanisms of the effects of antibiotics with anaerobic activity on GVHD, we turned to experiments in mice. […] Mice were treated by subcutaneous (SC) injections of each antibiotic twice a day for two days (500 mg/kg for pip/tazo and 100 mg/kg for others) and stool samples were collected, followed by 16S rRNA gene amplification and sequence analysis.

[4] = Antibiotic treatment in MHC-matched minor antigen-mismatched allo-HSCT GVHD model (C57BL/6 into 129S1); type: in vivo
Description: as §2, with “Data are representative from more than five independent experiments in D to F. (G and H) Comparisons of bacterial abundance at the phylogenetic levels of (G) order, and (H) genus are shown. Data are combined from 6 independent experiments (n=32-36). ***, P<0.001.” left out, “Numbers 1 through 6 along the x-axis represent the individual subjects.” left out
(A to G) Lethally irradiated 129S1 recipients were transplanted with C57BL/6 TCD-BM cells with 1×10^6 C57BL/6 T cells. […] (A) Colonic lamina propria-infiltrating leukocytes from recipients were analyzed on day 21 by flow cytometry. […] (C) Lamina propria-infiltrating leukocytes from the colon on day 21 were enriched for CD11b and CD11e simultaneously using a mixture of magnetic beads and IL-23 transcripts were quantified by real time PCR. […] (D) Immunofluorescent staining was used to quantify pSTAT3, CD3, and DAPI positive cells in colonic tissue collected on day 21. […]

[5] = Retrospective cohort of 283 allo-HSCT patients treated for neutropenic fever: GVHD-related mortality by antibiotic type; type: in vivo, human; details: compared to antibiotics with reduced activity against anaerobes (aztreonam, cefepime)
Source text: as §1
In one study, subjects analyzed retrospectively for impact of antibiotics on clinical outcomes consisted of 283 adult patients undergoing all-HSCT at Memorial Sloan Kettering Cancer Center (MSKCC) from 1994 to 2013. […]
GVHD was diagnosed clinically, confirmed pathologically by biopsy whenever possible, and classified according to historical consensus criteria as described previously (see Rowlings P A, Przepiorka D, Klein J P, et al. IBMTR Severity Index for grading acute graft-versus host disease: retrospective comparison with Glucksberg grade. Br J Haematol. 1997). […] Disease risk was determined according to the ASBMT RFI 2014 Disease Classification. […]

[6] = 100 mg/kg SC twice a day for two days

CC(=O)O [acetate]
Benefit on murine GVHD [1]: notable benefit

Cc1ncc([N+](=O)[O-])n1CCO [metronidazole]
Acute GVHD [2]: significant reduction in acute GVHD | Change in Clostridiales abundance in stool of patients (Clostridiales): significantly lower abundances of Clostridiales | Abundance of Clostridiales in stool [3, 6]: significantly reduced | Abundance of Enterococcus in stool [3, 6]: increased

C[C@@H](O)[C@H]1C(=O)N2C(C(=O)O)=C(SCCN=CN)C[C@H]12 [imipenem, imipenem-cilastatin]
Mortality / overall survival ([4]; 100 mg/kg SC 3 times a week from day 10, compared to aztreonam, within 2 weeks of starting treatment): significantly increased mortality; also recorded: aggravated mortality | Bacteria past the colonic epithelial barrier ([4]; mouse, in vivo): dissemination of bacteria past the colonic epithelial barrier | GVHD pathology in skin, liver and small intestine ([4]; mouse, in vivo): no significant differences | GVHD-related mortality [5]: increased GVHD-related mortality

piperacillin-tazobactam [pip/tazo]
Change in Clostridiales abundance in stool of patients (Clostridiales): significantly lower abundances of Clostridiales; also recorded: more severe loss | Amplifiable bacterial DNA in stool ([3]; 500 mg/kg SC twice a day for two days): no amplifiable bacterial DNA | GVHD-related mortality [5]: increased GVHD-related mortality

Source: US20240374655A1, “INTESTINAL MICROBIOTA AND GVHD” (Memorial Sloan-Kettering Cancer Center, priority 2014, published 2024)
